Test results taken from the supplement of paper PMC10307832.

Key:
Experiment in all cases: relative viability (nuclei count vs DMSO), 5 days (fraction); higher = more cells survive
BAY61-3606 + Navitoclax = compound: COC1=C(C=C(C=C1)C2=CC3=NC=CN3C(=N2)NC4=C(C=CC=N4)C(=O)N)OC [BAY61-3606] + CC1(C)CCC(c2ccc(Cl)cc2)=C(CN2CCN(c3ccc(C(=O)NS(=O)(=O)c4ccc(N[C@H](CCN5CCOCC5)CSc5ccccc5)c(S(=O)(=O)C(F)(F)F)c4)cc3)CC2)C1 [Navitoclax] (partner 0.5 µM)
How it was run: (§1)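 Lung cancer cell lines in 1536-well plates were dosed by pin tool the day after seeding, either with one drug alone or with a fixed anchor-drug dose plus five library-drug doses (not always all listed) in √10 steps. After 5 days, cells were fixed and their nuclei stained in one step (final 0.05% Triton X-100, 1% formaldehyde, 1 ug/ml Hoechst), then counted on 4× images. Relative viability is the nuclei count in treated wells divided by that in vehicle wells. Values are medians of duplicate plates.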

BAY61-3606 + Phenformin = compound: COC1=C(C=C(C=C1)C2=CC3=NC=CN3C(=N2)NC4=C(C=CC=N4)C(=O)N)OC [BAY61-3606] + N=C(N)NC(=N)NCCc1ccccc1 [Phenformin] (partner 250 µM)
How it was run: as §1

Doxorubicin + Luminespib = compound: COc1cccc2c1C(=O)c1c(O)c3c(c(O)c1C2=O)C[C@@](O)(C(=O)CO)C[C@@H]3O[C@H]1C[C@H](N)[C@H](O)[C@H](C)O1 [Doxorubicin] + CCNC(=O)c1noc(-c2cc(C(C)C)c(O)cc2O)c1-c1ccc(CN2CCOCC2)cc1 [Luminespib] (partner 0.01 µM)
How it was run: as §1

Doxorubicin + Alpelisib = compound: COc1cccc2c1C(=O)c1c(O)c3c(c(O)c1C2=O)C[C@@](O)(C(=O)CO)C[C@@H]3O[C@H]1C[C@H](N)[C@H](O)[C@H](C)O1 [Doxorubicin] + Cc1nc(NC(=O)N2CCC[C@H]2C(N)=O)sc1-c1ccnc(C(C)(C)C(F)(F)F)c1 [Alpelisib] (partner 2 µM)
How it was run: as §1

| Cell Line | relative viability (BAY61-3606 + Navitoclax; first compound 0.02 µM) | relative viability (BAY61-3606 + Navitoclax; first compound 0.06325 µM) | relative viability (BAY61-3606 + Navitoclax; first compound 0.2 µM) | relative viability (BAY61-3606 + Navitoclax; first compound 0.6325 µM) | relative viability (BAY61-3606 + Navitoclax; first compound 2 µM) | relative viability (BAY61-3606 + Phenformin; first compound 0.02 µM) | relative viability (BAY61-3606 + Phenformin; first compound 0.06325 µM) | relative viability (BAY61-3606 + Phenformin; first compound 0.2 µM) | relative viability (BAY61-3606 + Phenformin; first compound 0.6325 µM) | relative viability (BAY61-3606 + Phenformin; first compound 2 µM) | relative viability (Doxorubicin + Luminespib; first compound 0.001 µM) | relative viability (Doxorubicin + Luminespib; first compound 0.003162 µM) | relative viability (Doxorubicin + Luminespib; first compound 0.01 µM) | relative viability (Doxorubicin + Luminespib; first compound 0.03162 µM) | relative viability (Doxorubicin + Luminespib; first compound 0.1 µM) | relative viability (Doxorubicin + Alpelisib; first compound 0.003162 µM) | relative viability (Doxorubicin + Alpelisib; first compound 0.01 µM) | relative viability (Doxorubicin + Alpelisib; first compound 0.03162 µM) | relative viability (Doxorubicin + Alpelisib; first compound 0.1 µM) | relative viability (Doxorubicin + Alpelisib; first compound 0.001 µM) |
| --- | --- | --- | --- | --- | --- | --- | --- | --- | --- | --- | --- | --- | --- | --- | --- | --- | --- | --- | --- | --- |
| LOU-NH91 | 0.73 | 0.57 | 0.731 | 0.812 | 0.5 | 0.716 | 0.697 | 0.695 | 0.702 | 0.649 | 0.34 | 0.347 | 0.314 | 0.323 | 0.328 | 0.707 | 0.701 | 0.589 | 0.398 |  |
| LU99A | 0.845 | 0.762 | 0.984 | 0.828 | 0.396 | 0.938 | 0.759 | 0.735 | 0.755 | 0.708 | 0.226 | 0.228 | 0.268 | 0.235 | 0.258 | 0.648 | 0.549 | 0.505 | 0.51 | 0.489 |
| LXF-289 | 0.887 | 1.05 | 0.952 | 0.981 | 1.01 | 0.494 | 0.526 | 0.462 | 0.549 | 0.491 | 0.63 | 0.576 | 0.703 | 0.635 | 0.658 | 1.1 | 1.07 | 1.08 | 1.06 | 1.02 |
| NCI-H23 | 0.936 | 0.809 | 0.775 | 0.983 | 0.551 | 0.85 | 0.796 | 0.764 | 0.78 | 0.714 |  | 0.221 | 0.235 | 0.18 | 0.23 | 0.716 | 0.555 | 0.517 | 0.662 |  |
| NCI-H322M | 1.38 | 1.25 | 1.22 | 1.3 | 1.33 | 0.824 | 0.71 | 0.812 | 0.773 | 0.626 | 0.635 | 0.846 | 0.858 | 0.401 | 0.357 | 0.77 | 0.924 | 0.769 | 0.777 | 0.916 |
| NCI-H441 | 0.84 | 0.515 | 0.66 | 0.82 | 0.262 | 0.818 | 0.934 | 0.782 | 0.972 | 0.652 |  | 0.312 | 0.358 | 0.321 | 0.293 | 0.713 | 0.684 | 0.234 | 0.393 |  |
| NCI-H460 | 1.27 | 1.28 | 1.06 | 1.1 | 0.756 | 0.549 | 0.48 | 0.494 | 0.493 | 0.106 | 0.0376 | 0.0412 | 0.0317 | 0.0182 | 0.0137 | 0.386 | 0.288 | 0.024 | 0.0112 | 0.584 |
| NCI-H520 | 1.29 | 1.11 | 1.24 | 1.1 | 1.04 | 0.552 | 0.446 | 0.659 | 0.67 | 0.51 | 0.249 | 0.242 | 0.266 | 0.18 | 0.217 | 1.05 | 0.858 | 0.732 | 0.738 | 0.903 |
| NCI-H596 | 0.942 | 1.04 | 1.09 | 1.13 | 0.712 | 0.803 | 0.806 | 0.793 | 0.793 | 0.737 | 0.933 | 1.21 | 0.838 | 0.821 | 1.02 | 0.537 | 0.524 | 0.446 | 0.551 | 0.446 |
| NCI-H647 | 1.21 | 1.05 | 1.04 | 1.26 | 0.663 | 0.562 | 0.294 | 0.496 | 0.393 | 0.29 | 0.117 | 0.13 | 0.11 | 0.185 | 0.149 | 1.08 | 0.98 | 0.288 | 0.163 | 1.15 |
| NCI-H727 | 0.45 | 0.512 | 0.419 | 0.525 | 0.33 | 0.68 | 0.554 | 0.542 | 0.553 | 0.541 | 0.286 | 0.348 | 0.225 | 0.336 | 0.308 | 0.617 | 0.55 | 0.469 | 0.705 | 0.45 |
| NCI-H838 | 1.3 | 1.24 | 1.07 | 1.12 | 0.956 | 0.628 | 0.489 | 0.621 | 0.388 | 0.277 | 0.273 | 0.35 | 0.279 | 0.255 | 0.172 | 1.05 | 0.979 | 0.919 | 0.461 | 1 |
| NCI-H1355 | 1.08 | 0.962 | 0.865 | 0.995 | 0.721 | 0.484 | 0.368 | 0.406 | 0.448 | 0.41 | 0.697 | 0.829 | 0.686 | 0.605 | 0.732 | 0.96 | 0.889 | 0.839 | 0.823 | 0.868 |
| NCI-H1395 | 1.26 | 1.04 | 1.49 | 1.35 | 0.966 | 0.459 | 0.371 | 0.444 | 0.469 | 0.414 | 0.674 | 0.765 | 0.476 | 0.697 | 0.648 | 0.985 | 0.98 | 0.851 | 0.791 | 0.964 |
| NCI-H1437 | 1.1 | 1.16 | 1.06 | 1.12 | 1.06 | 0.345 | 0.312 | 0.304 | 0.283 | 0.284 | 1.01 | 1.17 | 1.12 | 0.832 | 0.553 | 1 | 0.94 | 0.611 | 0.257 | 1.03 |
